Assay results taken from patent US20240209028A1, “CNP COMPOUNDS” (priority 2022, published 2024).
Starred links: 1 amine or outer side, 2 acyl side, 3 side chain; linkers in the order of their positions; H or OH if unused. Positions of bridges follow the written chain, without caps; N, C: chain ends. Residues, ends and D or L forms follow the SMILES beside them. *: point of attachment. C18 diacid = O=C(O)CCCCCCCCCCCCCCCCC(=O)*; γGlu = O=C(O)[C@H](CCC(=O)[*:2])N[*:1]; AEEA = NCCOCCOCC(=O)O

Assay: Accelerated chemical stability (RP-UPLC recovery and LCMS degradation pattern, 37° C.)
Assay type: physicochemical
Design: Isomers TZ / Isomers 2 W / Loss of 18 amu TZ / Loss of 18 amu 2 W / Fragments TZ / Fragments 2 W / Fragments 1 W / Fragments 3 W / Fragments 4 W / Fragments 5 W / Fragments 6 W / Others 1 W / Others 3 W / Others 4 W / Others 5 W / Others 6 W / Isomers 1 W / Isomers 3 W / Isomers 4 W / Isomers 5 W / Isomers 6 W / Loss of 18 amu 1 W / Loss of 18 amu 3 W / Loss of 18 amu 4 W / Loss of 18 amu 5 W / Loss of 18 amu 6 W: unit not given here
Settings: LCMS, 250 mM glycerol; for Fragments 2 W / Isomers 2 W / Loss of 18 amu 2 W / Others 2 W: 2 weeks at 37° C.; for Fragments TZ / Isomers TZ / Loss of 18 amu TZ / Others TZ: time zero
Description: In order to determine the chemical stability of CNP compounds in formulation, samples of CNP compounds in buffer were exposed to accelerated chemical degradation by heating. The stability of a given peptide was assessed by measuring recovery of intact peptide by quantification by RP-UPLC. To assess the chemical degradation pattern samples were also analysed by LC-MS.
Sample preparation: Samples for the 2 week study were prepared according to the principles described in Example 5.
Samples for the 6 week study were prepared by dissolving lyophilized peptide in buffer (8 mM phosphate, 250 mM glycerol, pH 7.4) to a nominal peptide concentration of 5000 nmol/ml followed by pH adjustment with 0.1 N HCl to pH 6.5.
Incubation: For the 2 week study a time-zero (TZ) sample was pulled and stored at −18° C. and the remaining volume was incubated at 37° C. Samples were pulled and stored at −18° C. after 2 weeks of incubation. Frozen samples were thawed, diluted to about 200 nmol/mL and the extent of chemical degradation was determined using LCMS as described.
For the 6 week study a time-zero (TZ) sample was pulled and stored at −18° C. and the remaining volume was incubated at 37° C. Samples were pulled on a weekly basis and stored at −18° C. until the last sampling time point at 6 weeks. Frozen samples were thawed, diluted to about 200 nmol/mL and the extent of chemical degradation was determined using RP-UPLC and LCMS as described.
Analysis of peptide recovery by RP-UPLC: The RP-UPLC method was performed on a Waters ACQUITY H-CLASS UPLC system fitted with a PDA detector. Separation was carried out on an ACQUITY UPLC BEH C8 Column (130 Å, 1.7 μm, 2.1 mm×150 mm) operating at a column temperature of 50° C. with eluent A (19.59 mM NH4H2PO4 41.71 mM (NH4)2HPO4, pH 6.5 and MeCN 9:1 v:v) and eluent B (80% MeCN in water). UV-detection was carried out at 214 nm. The analysis was performed by injection of 3 μL of sample onto the column which was eluted with a 1-step linear gradient of eluents A and B from 27 to 30% B over 20 minutes followed by a wash at 95% B over 2 minutes followed by a re-equilibration phase for 7 minutes at a constant flow rate of 0.3 mL/min. This yielded an analysis time of 30 minutes per sample. The area of the peak corresponding to intact CNP compound was given on a percentage scale relative to the total peptide peak area.
Analysis of chemical degradation patterns by LCMS: Samples were analysed on a […] UPLC from Thermo Scientific, using a Waters Acquity C18 reversed-phase column, 300 Å, […] particles 1 mm×150 mm. The compounds were separated by a linear gradient of solvent B from 5% to 55% over 48 minutes, using solvent A: water, 0.1% formic acid with 0.02% TFA and solvent B: acetonitrile, 0.1% formic acid with 0.02% TFA. Mass spectra were acquired by a Q Exactive Plus hybrid Quadrupole-Orbitrap mass spectrometer, BioPharma option (Thermo Scientific) interfaced with H-ESI II ion source. Data acquisitions were performed with a m/z 500 to 2000 scan range and a resolution of 30000.
The data list was aggregated into a summed table of the compounds. The table headers were defined as follows: […]
Results: The results from LCMS analysis of a 2 week accelerated degradation study on several CNP compounds of the present invention are summarised in Table 12. The results from RP-UPLC and LCMS analysis of a 6 week accelerated degradation study on CNP compound 9482 (Chem. 137) is summarised in Table 13 and Table 14 respectively.

CC[C@H](C)[C@@H]1NC(=O)[C@H](CCCNC(=N)N)NC(=O)[C@H](CC(=O)O)NC(=O)[C@H](CC(C)C)NC(=O)[C@@H]2CCCN2C(=O)[C@H](CC(C)C)NC(=O)CNC(=O)[C@H](Cc2ccccc2)NC(=O)[C@@H](NC(=O)CNC(=O)[C@H](CCC(N)=O)NC(=O)[C@H](CO)NC(=O)[C@H](CC(C)C)NC(=O)CNC(=O)[C@H](CCCCN)NC(=O)[C@H](CCCCN)NC(=O)[C@H](CCC(N)=O)NC(=O)[C@H](C)NC(=O)CNC(=O)[C@H](CCCCN)NC(=O)[C@H](Cc2ccc(O)cc2)NC(=O)[C@H](CCCCN)NC(=O)[C@H](CCCNC(=N)N)NC(=O)[C@H](C)NC(=O)COCCOCCNC(=O)COCCOCCNC(=O)COCCOCCNC(=O)COCCOCCNC(=O)CC[C@H](NC(=O)CC[C@H](NC(=O)CC[C@H](NC(=O)CC[C@H](NC(=O)CC[C@H](NC(=O)CCCCCCCCCCCCCCCCC(=O)O)C(=O)O)C(=O)O)C(=O)O)C(=O)O)C(=O)O)CSSC[C@@H](C(=O)O)NC(=O)CNC(=O)[C@H](CC(C)C)NC(=O)CNC(=O)[C@H](CO)NC(=O)[C@H](CC(C)C)NC(=O)[C@H](CO)NC(=O)CNC1=O [Compound 9407] ({C18 diacid-γGlu-γGlu-γGlu-γGlu-γGlu-AEEA-AEEA-AEEA-AEEA}-ARKYKGAQKKGLSQGCFGLPLDRIGSLSGLGC-OH; disulfide 16-32)
Fragments 2 W (8 mM sodium phosphate, pH 6.5): 0.7 | Isomers 2 W (8 mM sodium phosphate, pH 6.5): 1.1 | Loss of 18 amu 2 W (8 mM sodium phosphate, pH 6.5): 0 | Others 2 W (8 mM sodium phosphate, pH 6.5): 0.3% | Fragments TZ (8 mM sodium phosphate, pH 6.5): 0 | Isomers TZ (8 mM sodium phosphate, pH 6.5): 0 | Loss of 18 amu TZ (8 mM sodium phosphate, pH 6.5): 0 | Others TZ (8 mM sodium phosphate, pH 6.5): 0.1%

CC[C@H](C)[C@@H]1NC(=O)[C@H](CCCNC(=N)N)NC(=O)[C@H](CC(=O)O)NC(=O)[C@H](CC(C)C)NC(=O)[C@@H]2CCCN2C(=O)[C@H](CC(C)C)NC(=O)CNC(=O)[C@H](Cc2ccccc2)NC(=O)[C@@H](NC(=O)CNC(=O)[C@H](CCC(N)=O)NC(=O)[C@H](CO)NC(=O)CNC(=O)CNC(=O)[C@H](CCCCN)NC(=O)[C@H](CCCCN)NC(=O)[C@H](CCC(N)=O)NC(=O)[C@H](C)NC(=O)CNC(=O)[C@H](CCCCN)NC(=O)[C@H](Cc2ccc(O)cc2)NC(=O)COCCOCCNC(=O)COCCOCCNC(=O)COCCOCCNC(=O)COCCOCCNC(=O)CC[C@H](NC(=O)CC[C@H](NC(=O)CCCCCCCCCCCCCCCCC(=O)O)C(=O)O)C(=O)O)CSSC[C@@H](C(=O)O)NC(=O)CNC(=O)[C@H](CC(C)C)NC(=O)CNC(=O)[C@H](CO)NC(=O)[C@H](CC(C)C)NC(=O)[C@H](CO)NC(=O)CNC1=O [Compound 9435] ({C18 diacid-γGlu-γGlu-AEEA-AEEA-AEEA-AEEA}-YKGAQKKGGSQGCFGLPLDRIGSLSGLGC-OH; disulfide 13-29)
Fragments 2 W (5 mM sodium acetate, pH 4): 0 | Isomers 2 W (5 mM sodium acetate, pH 4): 0.6 | Loss of 18 amu 2 W (5 mM sodium acetate, pH 4): 4.1 | Others 2 W (5 mM sodium acetate, pH 4): 0% | Fragments TZ (5 mM sodium acetate, pH 4): 0 | Isomers TZ (5 mM sodium acetate, pH 4): 0 | Loss of 18 amu TZ (5 mM sodium acetate, pH 4): 0 | Others TZ (5 mM sodium acetate, pH 4): 0%

CC[C@H](C)[C@@H]1NC(=O)[C@H](CCCNC(=N)N)NC(=O)[C@H](CC(=O)O)NC(=O)[C@H](CC(C)C)NC(=O)[C@@H]2CCCN2C(=O)[C@H](CC(C)C)NC(=O)CNC(=O)[C@H](Cc2ccccc2)NC(=O)[C@@H](NC(=O)CNC(=O)[C@H](CCC(N)=O)NC(=O)[C@H](CO)NC(=O)[C@H](CC(C)C)NC(=O)CNC(=O)[C@H](CCCCN)NC(=O)[C@H](CCCCN)NC(=O)[C@H](CCC(N)=O)NC(=O)[C@H](C)NC(=O)CNC(=O)[C@H](CCCCN)NC(=O)[C@H](Cc2ccc(O)cc2)NC(=O)COCCOCCNC(=O)COCCOCCNC(=O)COCCOCCNC(=O)COCCOCCNC(=O)CC[C@H](NC(=O)CC[C@H](NC(=O)CC[C@H](NC(=O)CCCCCCCCCCCCCCCCC(=O)O)C(=O)O)C(=O)O)C(=O)O)CSSC[C@@H](C(=O)O)NC(=O)CNC(=O)[C@H](CC(C)C)NC(=O)CNC(=O)[C@H](CO)NC(=O)[C@H](CC(C)C)NC(=O)[C@H](CO)NC(=O)CNC1=O [Compound 9480] ({C18 diacid-γGlu-γGlu-γGlu-AEEA-AEEA-AEEA-AEEA}-YKGAQKKGLSQGCFGLPLDRIGSLSGLGC-OH; disulfide 13-29)
Fragments 2 W (8 mM sodium phosphate, pH 6.5): 0 | Isomers 2 W (8 mM sodium phosphate, pH 6.5): 0 | Loss of 18 amu 2 W (8 mM sodium phosphate, pH 6.5): 0 | Others 2 W (8 mM sodium phosphate, pH 6.5): 0.6% | Fragments TZ (8 mM sodium phosphate, pH 6.5): 0 | Isomers TZ (8 mM sodium phosphate, pH 6.5): 0 | Loss of 18 amu TZ (8 mM sodium phosphate, pH 6.5): 0 | Others TZ (8 mM sodium phosphate, pH 6.5): 0%

CC[C@H](C)[C@@H]1NC(=O)[C@H](CCCNC(=N)N)NC(=O)[C@H](CC(=O)O)NC(=O)[C@H](CC(C)C)NC(=O)[C@@H]2CCCN2C(=O)[C@H](CC(C)C)NC(=O)CNC(=O)[C@H](Cc2ccccc2)NC(=O)[C@@H](NC(=O)CNC(=O)[C@H](CO)NC(=O)[C@H](CO)NC(=O)[C@H](CC(C)C)NC(=O)CNC(=O)[C@H](CCCCN)NC(=O)[C@H](CCCCN)NC(=O)[C@H](CCC(N)=O)NC(=O)[C@H](C)NC(=O)CNC(=O)[C@H](CCCCN)NC(=O)[C@H](Cc2ccc(O)cc2)NC(=O)[C@H](CCCCN)NC(=O)[C@H](CCCNC(=N)N)NC(=O)[C@H](C)NC(=O)[C@H](CCC(N)=O)NC(=O)[C@@H]2CCCN2C(=O)[C@H](Cc2c[nH]cn2)NC(=O)[C@H](CCC(=O)O)NC(=O)[C@H](CCC(N)=O)NC(=O)CC[C@H](NC(=O)CC[C@H](NC(=O)CC[C@H](NC(=O)CC[C@H](NC(=O)CC[C@H](NC(=O)CCCCCCCCCCCCCCCCC(=O)O)C(=O)O)C(=O)O)C(=O)O)C(=O)O)C(=O)O)CSSC[C@@H](C(=O)O)NC(=O)CNC(=O)[C@H](CC(C)C)NC(=O)CNC(=O)[C@H](CO)NC(=O)[C@H](CC(C)C)NC(=O)[C@H](CO)NC(=O)CNC1=O [Compound 9482] ({C18 diacid-γGlu-γGlu-γGlu-γGlu-γGlu}-QEHPQARKYKGAQKKGLSSGCFGLPLDRIGSLSGLGC-OH; disulfide 21-37)
Fragments 2 W (8 mM sodium phosphate, pH 6.5): 0 | Isomers 2 W (8 mM sodium phosphate, pH 6.5): 0 | Loss of 18 amu 2 W (8 mM sodium phosphate, pH 6.5): 0 | Others 2 W (8 mM sodium phosphate, pH 6.5): 0.3% | Fragments TZ (8 mM sodium phosphate, pH 6.5): 0 | Isomers TZ (8 mM sodium phosphate, pH 6.5): 0 | Loss of 18 amu TZ (8 mM sodium phosphate, pH 6.5): 0 | Others TZ (8 mM sodium phosphate, pH 6.5): 0%
